Experimental data from patent publication US11981658B2, “Substituted aminopyridine compounds as EGFR inhibitors” (YUHAN CORPORATION, priority 2021, dated 2024).
Where two headings read alike, the source gives them in different places.

Legend:
EGFR Del19/T790M/C797S = EGFR Del19/T790M/C797S (Homo sapiens, UniProt P00533, C797S/DEL746-750/T790M); test: Biochemical EGFR kinase inhibition assay (Lance Ultra TR-FRET), triple mutant del19/T790M/C797S
Method in brief: (§1)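 Enzyme reactions lasted 1 hour at room temperature with test compounds between 0.003 and 10 μM, followed by 10 mM EDTA quench.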

EGFR L858R/T790M/C797S = EGFR L858R/T790M/C797S (Homo sapiens, UniProt P00533, C797S/L858R/T790M); test: Biochemical EGFR kinase inhibition assay (Lance Ultra TR-FRET), triple mutant L858R/T790M/C797S
Method in brief: as §1

EGFR Del19/C797S = EGFR Del19/C797S (Homo sapiens, UniProt P00533, C797S/DEL746-750); test: Biochemical EGFR kinase inhibition assay (Lance Ultra TR-FRET), double mutant del19/C797S
Method in brief: as §1

EGFR L858R/C797S = EGFR L858R/C797S (Homo sapiens, UniProt P00533, C797S/L858R); test: Biochemical EGFR kinase inhibition assay (Lance Ultra TR-FRET), double mutant L858R/C797S
Method in brief: as §1

EGFR wildtype (WT) = EGFR wildtype (WT) (Homo sapiens, UniProt P00533); test: Biochemical EGFR kinase inhibition assay (Lance Ultra TR-FRET), wildtype
Method in brief: as §1

[1] = IC50 Del19/T790M/C797S (nM), 100 μM ATP
[2] = Km ATP, read-out: IC50 Del19/T790M/C797S (nM), Km ATP
[3] = IC50 L858R/T790M/C797S (nM), 100 μM ATP
[4] = Km ATP, read-out: IC50 L858R/T790M/C797S (nM), Km ATP
[5] = IC50 Del19/C797S (nM), 100 μM ATP
[6] = Km ATP, read-out: IC50 Del19/C797S (nM), Km ATP
[7] = IC50 L858R/C797S (nM), 100 μM ATP
[8] = Km ATP, read-out: IC50 L858R/C797S (nM), Km ATP
[9] = Km ATP, read-out: IC50 WT (nM), Km ATP

EGFR Del19/C797S, sequence (P00533 with tags, fused parts or gaps DEL746-750/C797S): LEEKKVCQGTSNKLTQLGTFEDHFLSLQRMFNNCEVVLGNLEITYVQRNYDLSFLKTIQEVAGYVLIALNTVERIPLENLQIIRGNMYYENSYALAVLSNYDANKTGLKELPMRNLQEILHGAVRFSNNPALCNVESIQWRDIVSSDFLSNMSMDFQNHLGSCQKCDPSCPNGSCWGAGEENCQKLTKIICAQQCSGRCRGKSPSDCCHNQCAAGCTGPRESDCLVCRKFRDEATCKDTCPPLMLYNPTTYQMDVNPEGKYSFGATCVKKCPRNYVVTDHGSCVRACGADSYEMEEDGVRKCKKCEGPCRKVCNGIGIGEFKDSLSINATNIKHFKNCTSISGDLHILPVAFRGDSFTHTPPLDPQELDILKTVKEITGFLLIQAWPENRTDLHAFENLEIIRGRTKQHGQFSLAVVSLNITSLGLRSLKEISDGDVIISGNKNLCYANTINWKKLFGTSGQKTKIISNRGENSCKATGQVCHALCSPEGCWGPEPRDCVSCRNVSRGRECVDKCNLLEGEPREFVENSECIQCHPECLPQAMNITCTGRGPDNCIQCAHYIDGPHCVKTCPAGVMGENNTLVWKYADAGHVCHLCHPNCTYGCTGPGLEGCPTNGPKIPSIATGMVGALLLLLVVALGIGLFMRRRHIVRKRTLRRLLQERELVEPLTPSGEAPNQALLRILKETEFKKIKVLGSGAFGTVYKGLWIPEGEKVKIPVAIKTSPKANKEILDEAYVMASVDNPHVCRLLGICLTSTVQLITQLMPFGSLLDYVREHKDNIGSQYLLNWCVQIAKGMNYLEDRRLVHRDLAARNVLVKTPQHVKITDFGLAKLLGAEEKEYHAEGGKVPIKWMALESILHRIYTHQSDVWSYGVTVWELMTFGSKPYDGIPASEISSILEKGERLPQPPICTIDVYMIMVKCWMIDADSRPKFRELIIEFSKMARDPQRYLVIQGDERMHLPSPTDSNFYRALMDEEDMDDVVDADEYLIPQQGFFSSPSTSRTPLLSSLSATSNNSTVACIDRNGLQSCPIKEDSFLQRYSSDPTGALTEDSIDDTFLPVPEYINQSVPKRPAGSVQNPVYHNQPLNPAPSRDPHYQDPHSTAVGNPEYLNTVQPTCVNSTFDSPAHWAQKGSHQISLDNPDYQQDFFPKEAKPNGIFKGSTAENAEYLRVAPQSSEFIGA
EGFR wildtype (WT), sequence (P00533 25-1210): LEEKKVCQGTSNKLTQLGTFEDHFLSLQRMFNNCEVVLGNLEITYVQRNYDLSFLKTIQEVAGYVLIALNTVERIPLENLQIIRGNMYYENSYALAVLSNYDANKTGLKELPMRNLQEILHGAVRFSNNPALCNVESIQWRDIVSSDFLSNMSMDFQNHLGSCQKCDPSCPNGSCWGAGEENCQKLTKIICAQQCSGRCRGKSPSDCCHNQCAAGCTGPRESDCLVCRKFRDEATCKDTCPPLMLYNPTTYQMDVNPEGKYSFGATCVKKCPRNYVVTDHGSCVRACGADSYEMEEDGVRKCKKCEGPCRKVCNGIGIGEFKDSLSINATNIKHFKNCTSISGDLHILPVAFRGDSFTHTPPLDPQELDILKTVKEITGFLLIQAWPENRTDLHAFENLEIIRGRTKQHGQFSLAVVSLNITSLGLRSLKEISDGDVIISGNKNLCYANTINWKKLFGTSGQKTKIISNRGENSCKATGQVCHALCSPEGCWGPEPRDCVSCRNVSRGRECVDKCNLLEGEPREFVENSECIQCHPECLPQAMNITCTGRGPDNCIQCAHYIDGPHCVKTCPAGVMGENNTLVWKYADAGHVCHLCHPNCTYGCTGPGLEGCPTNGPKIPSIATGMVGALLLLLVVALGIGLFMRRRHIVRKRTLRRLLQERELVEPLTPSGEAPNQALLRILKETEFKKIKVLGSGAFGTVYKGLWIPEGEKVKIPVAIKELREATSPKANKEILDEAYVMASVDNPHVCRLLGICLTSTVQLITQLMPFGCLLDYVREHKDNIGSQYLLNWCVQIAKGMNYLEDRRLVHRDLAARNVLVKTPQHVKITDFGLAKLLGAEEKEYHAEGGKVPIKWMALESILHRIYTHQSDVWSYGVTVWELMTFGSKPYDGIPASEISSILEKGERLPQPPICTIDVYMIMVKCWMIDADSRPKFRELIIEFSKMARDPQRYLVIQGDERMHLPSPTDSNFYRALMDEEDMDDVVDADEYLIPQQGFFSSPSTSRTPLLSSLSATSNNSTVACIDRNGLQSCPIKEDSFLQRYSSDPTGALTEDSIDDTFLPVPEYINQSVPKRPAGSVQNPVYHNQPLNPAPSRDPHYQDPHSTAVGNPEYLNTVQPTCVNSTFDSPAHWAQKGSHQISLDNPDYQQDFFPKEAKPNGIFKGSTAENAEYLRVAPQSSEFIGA
EGFR L858R/T790M/C797S, sequence (P00533 25-1210 T790M/C797S/L858R): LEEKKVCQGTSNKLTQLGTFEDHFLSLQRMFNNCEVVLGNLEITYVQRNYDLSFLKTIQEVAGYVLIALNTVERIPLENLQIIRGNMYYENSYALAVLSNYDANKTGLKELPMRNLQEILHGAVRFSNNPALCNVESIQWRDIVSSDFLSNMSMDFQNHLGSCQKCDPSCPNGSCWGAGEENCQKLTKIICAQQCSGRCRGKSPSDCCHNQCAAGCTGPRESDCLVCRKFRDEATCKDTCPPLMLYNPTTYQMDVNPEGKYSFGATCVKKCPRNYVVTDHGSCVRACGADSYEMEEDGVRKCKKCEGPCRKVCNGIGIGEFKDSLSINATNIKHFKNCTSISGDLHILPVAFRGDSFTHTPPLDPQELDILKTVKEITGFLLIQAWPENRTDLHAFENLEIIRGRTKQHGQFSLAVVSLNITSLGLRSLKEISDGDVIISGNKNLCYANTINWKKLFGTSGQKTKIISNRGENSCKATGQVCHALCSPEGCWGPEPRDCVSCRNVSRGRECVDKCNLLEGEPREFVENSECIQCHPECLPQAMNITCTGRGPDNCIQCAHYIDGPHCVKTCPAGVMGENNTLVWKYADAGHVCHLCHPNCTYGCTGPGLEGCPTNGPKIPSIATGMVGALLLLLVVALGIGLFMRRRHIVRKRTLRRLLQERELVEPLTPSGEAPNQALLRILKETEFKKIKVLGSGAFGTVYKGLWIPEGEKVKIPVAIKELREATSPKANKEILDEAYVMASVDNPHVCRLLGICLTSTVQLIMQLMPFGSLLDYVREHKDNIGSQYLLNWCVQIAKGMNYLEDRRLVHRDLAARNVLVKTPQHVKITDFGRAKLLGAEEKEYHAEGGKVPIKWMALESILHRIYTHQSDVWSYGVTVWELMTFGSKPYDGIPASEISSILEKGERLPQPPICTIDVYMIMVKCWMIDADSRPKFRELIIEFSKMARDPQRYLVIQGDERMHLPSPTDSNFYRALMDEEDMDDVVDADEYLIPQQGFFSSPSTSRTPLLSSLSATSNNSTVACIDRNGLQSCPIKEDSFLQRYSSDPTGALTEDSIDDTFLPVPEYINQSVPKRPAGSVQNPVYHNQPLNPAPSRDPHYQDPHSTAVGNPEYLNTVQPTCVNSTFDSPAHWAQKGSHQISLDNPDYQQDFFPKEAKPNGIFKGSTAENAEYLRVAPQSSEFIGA
EGFR L858R/C797S, sequence (P00533 25-1210 C797S/L858R): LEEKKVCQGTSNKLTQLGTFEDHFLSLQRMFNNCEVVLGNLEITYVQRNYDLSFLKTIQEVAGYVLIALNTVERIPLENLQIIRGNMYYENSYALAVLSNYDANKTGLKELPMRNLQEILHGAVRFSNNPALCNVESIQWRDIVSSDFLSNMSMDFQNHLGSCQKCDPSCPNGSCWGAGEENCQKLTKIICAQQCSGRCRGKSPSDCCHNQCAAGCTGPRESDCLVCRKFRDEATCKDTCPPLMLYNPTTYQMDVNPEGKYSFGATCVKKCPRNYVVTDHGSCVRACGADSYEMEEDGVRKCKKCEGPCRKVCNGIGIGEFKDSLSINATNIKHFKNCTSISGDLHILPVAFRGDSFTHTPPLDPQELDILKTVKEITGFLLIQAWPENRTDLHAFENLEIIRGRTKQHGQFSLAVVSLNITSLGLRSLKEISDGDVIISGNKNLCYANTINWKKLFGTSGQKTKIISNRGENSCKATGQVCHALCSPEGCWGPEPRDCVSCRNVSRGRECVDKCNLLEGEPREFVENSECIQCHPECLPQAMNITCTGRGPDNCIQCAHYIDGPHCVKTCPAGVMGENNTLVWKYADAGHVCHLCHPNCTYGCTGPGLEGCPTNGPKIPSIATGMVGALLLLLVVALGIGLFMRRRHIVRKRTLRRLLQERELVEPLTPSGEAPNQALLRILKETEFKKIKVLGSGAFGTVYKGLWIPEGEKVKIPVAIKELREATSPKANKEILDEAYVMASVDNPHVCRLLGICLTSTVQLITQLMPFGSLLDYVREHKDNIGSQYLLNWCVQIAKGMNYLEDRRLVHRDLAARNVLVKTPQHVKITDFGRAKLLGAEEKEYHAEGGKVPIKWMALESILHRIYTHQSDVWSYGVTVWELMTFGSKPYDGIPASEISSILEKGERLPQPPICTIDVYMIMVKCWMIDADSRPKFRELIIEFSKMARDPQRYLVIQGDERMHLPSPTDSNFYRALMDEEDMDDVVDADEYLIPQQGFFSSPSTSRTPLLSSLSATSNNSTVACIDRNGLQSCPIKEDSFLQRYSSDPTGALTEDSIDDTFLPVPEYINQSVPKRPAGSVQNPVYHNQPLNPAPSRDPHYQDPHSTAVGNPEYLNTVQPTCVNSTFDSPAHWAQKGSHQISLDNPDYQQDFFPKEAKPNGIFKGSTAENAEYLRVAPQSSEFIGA

| Compound | IC50 (EGFR Del19/T790M/C797S; [1]) | IC50 (EGFR Del19/T790M/C797S; [2]) | IC50 (EGFR L858R/T790M/C797S; [3]) | IC50 (EGFR L858R/T790M/C797S; [4]) | IC50 (EGFR Del19/C797S; [5]) | IC50 (EGFR Del19/C797S; [6]) | IC50 (EGFR L858R/C797S; [7]) | IC50 (EGFR L858R/C797S; [8]) | IC50 (EGFR wildtype (WT); IC50 WT (nM), 100 μM ATP) | IC50 (EGFR wildtype (WT); [9]) | IC50 (EGFR Del19/T790M/C797S; ATP at Km, read-out: IC50 Del19/T790M/C797S (nM), Km ATP) | IC50 (EGFR L858R/T790M/C797S; ATP at Km, read-out: IC50 L858R/T790M/C797S (nM), Km ATP) | IC50 (EGFR Del19/C797S; ATP at Km, read-out: IC50 Del19/C797S (nM), Km ATP) | IC50 (EGFR L858R/C797S; ATP at Km, read-out: IC50 L858R/C797S (nM), Km ATP) | IC50 (EGFR wildtype (WT); ATP at Km, read-out: IC50 WT (nM), Km ATP) |
| --- | --- | --- | --- | --- | --- | --- | --- | --- | --- | --- | --- | --- | --- | --- | --- |
| C[C@]1(O)CC[C@@H](Nc2cc(Nc3ccnc(-c4cnn(S(=O)(=O)C5CC5)c4)n3)ncc2C#Cc2cnn(CC(F)(F)F)c2)CC1 [Example 344, (1s, 4s)-4-((2-((2-(1-(Cyclopropylsulfonyl)-1H-pyrazol-4-yl)pyrimidin-4-yl)amino)-5-((1-(2,2,2-trifluoroethyl)-1H-pyrazol-4-yl)ethynyl)pyridin-4-yl)amino)-1-methylcyclohexan-1-ol] | 11.5 nM | 7.9 nM | 5 nM | 3.1 nM | 50.6 nM | 31.3 nM | 112 nM | 24.1 nM | > 10000 nM | 200 nM | – | – | – | – | – |
| Cn1cc(C#Cc2cnc(Nc3ccnc(-c4cnn(S(=O)(=O)C5CC5)c4)n3)cc2N2CCC(N3CC(F)(F)C3)CC2)cn1 [Example 128, 2-(1-(Cyclopropylsulfonyl)-1H-pyrazol-4-yl)-N-(4-(4-(3,3-difluoroazetidin-1-yl)piperidin-1-yl)-5-((1-methyl-1H-pyrazol-4-yl)ethynyl)pyridin-2-yl)pyrimidin-4-amine] | 7.1 nM | – | 4.8 nM | – | 29.5 nM | – | 73 nM | – | > 10000 nM | – | – | – | – | – | – |
| O=C(c1ccc(C#Cc2cnc(Nc3ccnc(-c4cnn(S(=O)(=O)C5CC5)c4)n3)cc2N2CCC[C@@H](O)C2)cc1)N1CCC(O)CC1 [Example 444, (R)-(4-((6-((2-(1-(Cyclopropylsulfonyl)-1H-pyrazol-4-yl)pyrimidin-4-yl)amino)-4-(3-hydroxypiperidin-1-yl)pyridin-3-yl)ethynyl)phenyl)(4-hydroxypiperidin-1-yl)methanone] | 1.5 nM | 0.9 nM | 1.5 nM | 0.3 nM | 10.2 nM | – | 549 nM | – | > 10000 nM | – | – | – | – | – | – |
| O=S(=O)(C1CC1)n1cc(-c2nccc(Nc3cc(NC[C@H]4CC[C@H](CO)CC4)c(C#CC4CC5CCC4O5)cn3)n2)cn1 (some centres unmarked) [Example 425, ((1r,4r)-4-(((5-((7-Oxabicyclo[2.2.1]heptan-2-yl)ethynyl)-2-((2-(1-(cyclopropylsulfonyl)-1H-pyrazol-4-yl)pyrimidin-4-yl)amino)pyridin-4-yl)amino)methyl)cyclohexyl)methanol] | 2.5 nM | – | 5.4 nM | – | 120 nM | – | 1820 nM | – | > 10000 nM | – | – | – | – | – | – |
| Cn1cc(C#Cc2cnc(Nc3ccnc(-c4cnn(S(=O)(=O)C5CC5)c4)n3)cc2N2CCC(F)(CO)CC2)cn1 [Example 73, (1-(2-((2-(1-(Cyclopropylsulfonyl)-1H-pyrazol-4-yl)pyrimidin-4-yl)amino)-5-((1-methyl-1H-pyrazol-4-yl)ethynyl)pyridin-4-yl)-4-fluoropiperidin-4-yl)methanol] | 0.4 nM | – | 1.2 nM | – | 2.8 nM | – | 6.6 nM | – | 7550 nM | – | – | – | – | – | – |

More lines, in order of falling IC50 (EGFR Del19/T790M/C797S; [1]), values ahead:

| IC50 (EGFR Del19/T790M/C797S; [1]) | IC50 (EGFR Del19/T790M/C797S; [2]) | IC50 (EGFR L858R/T790M/C797S; [3]) | IC50 (EGFR L858R/T790M/C797S; [4]) | IC50 (EGFR Del19/C797S; [5]) | IC50 (EGFR Del19/C797S; [6]) | IC50 (EGFR L858R/C797S; [7]) | IC50 (EGFR L858R/C797S; [8]) | IC50 (EGFR wildtype (WT); IC50 WT (nM), 100 μM ATP) | IC50 (EGFR wildtype (WT); [9]) | IC50 (EGFR Del19/T790M/C797S; ATP at Km, read-out: IC50 Del19/T790M/C797S (nM), Km ATP) | IC50 (EGFR L858R/T790M/C797S; ATP at Km, read-out: IC50 L858R/T790M/C797S (nM), Km ATP) | IC50 (EGFR Del19/C797S; ATP at Km, read-out: IC50 Del19/C797S (nM), Km ATP) | IC50 (EGFR L858R/C797S; ATP at Km, read-out: IC50 L858R/C797S (nM), Km ATP) | IC50 (EGFR wildtype (WT); ATP at Km, read-out: IC50 WT (nM), Km ATP) | Compound |
| --- | --- | --- | --- | --- | --- | --- | --- | --- | --- | --- | --- | --- | --- | --- | --- |
| 3.7 nM | – | 6.8 nM | – | 52.2 nM | – | 78.6 nM | – | > 10000 nM | – | – | – | – | – | – | CN(C)CC1(O)CCN(c2cc(Nc3ccnc(-c4cnn(S(=O)(=O)C5CC5)c4)n3)ncc2C#Cc2cnn(C)c2)CC1 [Example 315, 1-(2-((2-(1-(Cyclopropylsulfonyl)-1H-pyrazol-4-yl)pyrimidin-4-yl)amino)-5-((1-methyl-1H-pyrazol-4-yl)ethynyl)pyridin-4-yl)-4-((dimethylamino)methyl)piperidin-4-ol] |
| 2.7 nM | 1.5 nM | 2.2 nM | 1.3 nM | 27.6 nM | 11 nM | 45.3 nM | 9.3 nM | 7830 nM | 138 nM | – | – | – | – | – | O=S(=O)(C1CC1)n1cc(-c2nccc(Nc3cc(N[C@H]4CC[C@@H](NCCF)CC4)c(C#Cc4cnn(CC(F)(F)F)c4)cn3)n2)cn1 [Example 345, N^2-(2-(1-(Cyclopropylsulfonyl)-1H-pyrazol-4-yl)pyrimidin-4-yl)-N^4-((1s,4s)-4-((2-fluoroethyl)amino)cyclohexyl)-5-((1-(2,2,2-trifluoroethyl)-1H-pyrazol-4-yl)ethynyl)pyridine-2,4-diamine] |
| 2.6 nM | – | 1.9 nM | – | 7.5 nM | – | 29.7 nM | – | > 10000 nM | – | 3.1 nM | 1.1 nM | 6.9 nM | 4.7 nM | 23.9 nM | CC1(CO)CCN(c2cc(Nc3ccnc(-c4cnn(S(=O)(=O)C5CC5)c4)n3)ncc2C#Cc2cn(CC(F)F)c3ccncc23)CC1 [Example 249, (1-(2-((2-(1-(Cyclopropylsulfonyl)-1H-pyrazol-4-yl)pyrimidin-4-yl)amino)-5-((1-(2,2-difluoroethyl)-1H-pyrrolo[3,2-c]pyridin-3-yl)ethynyl)pyridin-4-yl)-4-methylpiperidin-4-yl)methanol] |
| 2 nM | – | 6.1 nM | – | 10.3 nM | – | 53.3 nM | – | > 10000 nM | – | – | – | – | – | – | O=S(=O)(C1CC1)n1cc(-c2nccc(Nc3cc(N4CCC(CCO)CC4)c(C#Cc4cnn(CCF)c4)cn3)n2)cn1 [Example 17, 2-(1-(2-((2-(1-(Cyclopropylsulfonyl)-1H-pyrazol-4-yl)pyrimidin-4-yl)amino)-5-((1-(2-fluoroethyl)-1H-pyrazol-4-yl)ethynyl)pyridin-4-yl)piperidin-4-yl)ethan-1-ol] |
| 0.7 nM | – | 2.3 nM | – | 4.9 nM | – | 28.1 nM | – | > 10000 nM | – | – | – | – | – | – | O=S(=O)(C1CC1)n1cc(-c2nccc(Nc3cc(N4CCC(O)CC4)c(C#Cc4cnn(CCF)c4)cn3)n2)cn1 [Example 28, 1-(2-((2-(1-(Cyclopropylsulfonyl)-1H-pyrazol-4-yl)pyrimidin-4-yl)amino)-5-((1-(2-fluoroethyl)-1H-pyrazol-4-yl)ethynyl)pyridin-4-yl)piperidin-4-ol] |
| 0.5 nM | 0.3 nM | 0.7 nM | 0.1 nM | 2.1 nM | 0.4 nM | 14.5 nM | 1.6 nM | 5200 nM | 4.6 nM | – | – | – | – | – | CC1(CO)CCN(c2cc(Nc3ccnc(-c4cnn(S(=O)(=O)C5CC5)c4)n3)ncc2C#CC2CCN(S(C)(=O)=O)CC2)CC1 [Example 389, (1-(2-((2-(1-(Cyclopropylsulfonyl)-1H-pyrazol-4-yl)pyrimidin-4-yl)amino)-5-((1-(methylsulfonyl)piperidin-4-yl)ethynyl)pyridin-4-yl)-4-methylpiperidin-4-yl)methanol] |
| 0.3 nM | 0.2 nM | 0.3 nM | 0.1 nM | 1.6 nM | 0.8 nM | 22.9 nM | 1 nM | 5110 nM | 5.5 nM | – | – | – | – | – | CN1CCC(C#Cc2cnc(Nc3ccnc(-c4cnn(S(=O)(=O)C5CC5)c4)n3)cc2N2CCC3(CCCO3)CC2)C1 (centres unmarked) [Example 372, 2-(1-(Cyclopropylsulfonyl)-1H-pyrazol-4-yl)-N-(5-((1-methylpyrrolidin-3-yl)ethynyl)-4-(1-oxa-8-azaspiro[4.5]decan-8-yl)pyridin-2-yl)pyrimidin-4-amine] |
| 0.1 nM | – | 0.2 nM | – | 2.1 nM | – | 26 nM | – | 6570 nM | – | – | – | – | – | – | O=C(N1CCC(C#Cc2cnc(Nc3ccnc(-c4cnn(S(=O)(=O)C5CC5)c4)n3)cc2NC2CCC(CO)CC2)C1)C(F)(F)F (centres unmarked) [Example 408, 1-(3-((6-((2-(1-(Cyclopropylsulfonyl)-1H-pyrazol-4-yl)pyrimidin-4-yl)amino)-4-(((1s,4s)-4-(hydroxymethyl)cyclohexyl)amino)pyridin-3-yl)ethynyl)pyrrolidin-1-yl)-2,2,2-trifluoroethan-1-one] |
